Experimental findings from patent publication US6683103B2, “Sulfonamides for treatment of endothelin-mediated disorders” (Texas Biotechnology Corporation, priority 1997, dated 2004) are described below.

A short description of one data set: Papp (Table 4). It counts as in vitro ADME.
For data set [1], the system named is ET-1-induced pressor response. Briefly: ET-1-induced pressor responses in conscious, autonomically blocked rats. It counts as in vivo, rat. The following applies: in 30 min at dosages as low as 30 mg/kg. The protocol:
Animals were placed in a restrainer and allowed to regain consciousness. Thirty minutes later autonomic blockade was administered (atropine methyl nitrate, 3 mg/kg, IV, followed by propranalol, 2 mg/kg, IV). An hour later animals received a bolus injection of vehicle (0.5 ml) followed thirty minutes later by intravenous bolus administration of ET-1 (Control, 1 μg/kg). Following recovery from this challenge, test-compounds were administered by intravenous bolus administration (0.5 ml) and then re-challenged with ET-1 thirty minutes later. Results are expressed as the percent inhibition of the ET-1-induced pressor response after administration of the test compound compared to the pressor response induced by the control ET-1 challenge. In some cases a third ET-1 challenge was administered ninety minutes after administration of the test compound.

The nature of data set [2]: Stability of solutions, percent remaining by HPLC. It counts as physicochemical. Particulars: 150 mg/mL; LABRASOL; 24 h.
Data set [3] in a line: Oral half-life and peak plasma levels in rat. It counts as in vivo. An excerpt:
As used herein, bioavailability refers to the rate and extent of absorption. Methods for determining bioavailability are well known to those of skill in the art. For example, bioavailability of any of the compounds described herein can be determined empirically by administration of the compound to an animal, followed by taking blood samples over time and measuring the blood concentration of the compound. In vivo half life (t½) is defined as the time it takes for the concentration of the compound in the blood to be reduced by one-half. Estimations of the area under the curve for intravenous administration can be used to estimate the area under the curve for oral administration, yielding bioavailability data. See, e.q., Milo Gibal (1991) Biopharmaceutics and Pharmacology, 4th edition (Lea and Sediger).
Table 4 lists oral half-life, bioavailability, and in vivo activity of selected exemplary compounds. The in vivo activity was measured in a pulmonary hypertension model and is a measure of the activity of the compounds at selected dosages.

Data set [4] concerns Pulmonary Hypertension model. Briefly: Pulmonary hypertension model, in vivo efficacy. Also on record: species or system rat; key to in vivo Efficacy: ++ effective at 5 mg/kg; − no effect at 5 mg/kg; + effective at 15 mg/kg. The following applies: Pulmonary Hypertension model. The protocol: As used herein, efficacy refers to the maximal effect that can be produced by a compound. Efficacy can be determined by methods known to those of skill in the art. For example, it can be determined by the properties of the compound and its receptor-effector system and is reflected in the plateau of the concentration-effect curve. In vivo efficacy refers to efficacy which is determined in an animal model. For example, in vivo efficacy of the compounds described herein can be determined by amelioration of hypoxia-induced pulmonary hypertension in rat. In this context, in vivo efficacy refers to the ability of a compound to restore an elevated pulmonary artery pressure to a normal value. […] J. Physiol. […] The in vivo activity was measured in a pulmonary hypertension model and is a measure of the activity of the compounds at selected dosages.

Data set [5] deals with DOCA-salt hypertensive rat. Briefly: Deoxycorticosterone acetate (DOCA)-salt hypertensive rat model. It counts as in vivo. The protocol:
E. Deoxycorticosterone Acetate (DOCA)-Salt Hypertensive Rat Model for Assessing in vivo Activity of Selected Compounds
Selected compounds disclosed herein have been tested for activity in the deoxycorticosterone acetate (DOCA)-salt hypertensive rat model. To perform these tests, silastic MDX4-4210 elastomer implants containing 47 mg (DOCA) were prepared according to the method of Ornmsbee et al. ((1973) the J. Pharm. Sci. 62:255-257). Briefly, DOCA is incorporated into silicon rubber implants for sustained release. To prepare the implants the DOCA is incorporated into unpolymerized silicone rubber, catalyst is added and the mixture is cast in a hemicylindrical shape.
Sprague Dawley rats (7-8 weeks old) were unilaterally nephrectomized under ketamine anesthesia and a DOCA-implant was placed on the left lateral dorsal abdomen of the animal. The rats were allowed to recover for three weeks. During recovery they were permitted free access to normal rat chow and 0.9% NaCl drinking solution in place of drinking water. The rats develop hypertension within 3 weeks.
All animals were used in the tests between 21 and 30 days post surgery. The mean arterial blood pressure in these animals ranged from 165-200 mm Hg.
On the day of experimentation, catheters were inserted under brevital anesthesia into the right femoral artery for measurement of blood pressure, and into the right femoral vein for administration of a selected compound. The animals were placed in a restrainer and allowed to recover for a minimum of 60 min or until a steady mean arterial blood pressure was recorded. At that time, the selected compound or control vehicle was administered either intravenously, as a 60 minute infusion, or orally by oral gavage. Blood pressure was recorded continuously for a further 10 hrs.

Regarding `Cc1cc2c(cc1CC(=O)c1sccc1S(=O)(=O)Nc1onc(C)c1Cl)OCO2` [N-(4-chloro-3-methyl-5-isoxazolyl)-2-[2-methyl-4,5-(methylenedioxy)phenylacetyl]thiophene-3-sulfonamide], in the data set “Papp (Table 4)”, the apparent permeability (Papp) (as a rule, the rate of passage across a membrane or cell layer, normalised by area and donor concentration) was 2.32 ×10⁻⁶ cm/s. Also, the reduction of pressure entry in data set [1] is on record as “about 30%”. Further, the “percent remaining (HPLC)” value in data set [2] is recorded as 90.1%. Moreover, in data set [3] (in vivo), the “Peak Plasma Levels” value is 173 µg/mL. Moreover, in data set [3] (oral), the “POt½ in Rat” value worked out at 4.1 h. For the same compound, the “in vivo Efficacy” value in data set [4] is listed as “++”.

Consider `Cc1noc(NS(=O)(=O)c2ccsc2C(=O)Cc2ccc3c(c2)OCO3)c1Cl` [N-(4-chloro-3-methyl-5-isoxazolyl)-2-[(3,4-(methylenedioxy)phenylacetyl]thiophene-3-sulfonamide], for which the reduction of pressure result in data set [1] is listed as “about 30%”. In addition, in data set [5], the “effect on blood pressure” value was “effective in decreasing blood pressure”.
